Legend:
[1] = system: VIOTR (Viola tricolor, wild pansy); assay: Post-emergence foliar-applied weed control in cereal crops, greenhouse (Example III); format: in vivo, Viola tricolor (L.)
Experimental: (§1) Seeds of the desired test plant species were planted in Sun Gro MetroMix® 306 planting mixture, which typically has a pH of 6.0 to 6.8 and an organic matter content of about 30 percent, in plastic pots with a surface area of 103.2 square centimeters (cm^2). When required to ensure good germination and healthy plants, a fungicide treatment and/or other chemical or physical treatment was applied. The plants were grown for 7-36 days in a greenhouse with an approximate 14 hour photoperiod which was maintained at about 18° C. during the day and 17° C. during the night. Nutrients and water were added on a regular basis and supplemental lighting was provided with overhead metal halide 1000-Watt lamps as necessary. The plants were employed for testing when they reached the second or third true leaf stage.
(§2) Treatments consisted of the benzyl ester of 4-amino-3-chloro-5-fluoro-6-(4-chloro-2-fluoro-3-methoxy-phenyl)pyridine-2-carboxylic acid (Compound A), formulated as an SC (suspension concentrate), and a second cereal herbicide alone and in combination.
(§3) Measured aliquot of benzyl ester of 4-amino-3-chloro-5-fluoro-6-(4-chloro-2-fluoro-3-methoxy-phenyl)pyridine-2-carboxylic acid (Compound A) was placed in 25 milliliter (mL) glass vials and diluted in a volume of 1.25% (v/v) Agri-dex crop oil concentrated to obtain stock solutions. Compound requirements are based upon a 12 mL application volume at a rate of 187 liters per hectare (L/ha). Spray solutions of the second cereal herbicide and experimental compound mixtures were prepared by adding the stock solutions to the appropriate amount of dilution solution to form 12 mL spray solution with active ingredients in two- and three-way combinations. Formulated compounds were applied to the plant material with an overhead Mandel track sprayer equipped with an 8002E nozzle calibrated to deliver 187 L/ha over an application area of 0.503 square meters (m^2) at a spray height of 18 inches (46 cm) above average plant canopy. Control plants were sprayed in the same manner with the solvent blank.
(§4) The treated plants and control plants were placed in a greenhouse as described above and watered by sub-irrigation to prevent wash-off of the test compounds. After 20-22 days, the condition of the test plants as compared with that of the control plants was determined visually and scored on a scale of 0 to 100 percent where 0 corresponds to no injury and 100 corresponds to complete kill.
(§5) Colby's equation was used to determine the herbicidal effects expected from the mixtures (Colby, S. R. 1967. Calculation of the synergistic and antagonistic response of herbicide combinations. Weeds 15:20-22.).
(§6) The following equation was used to calculate the expected activity of mixtures containing two active ingredients, A and B: Expected=A+B−(A×B/100)

[2] = system: CIRAR (Cirsium arvense, Canada thistle); assay: as above; format: in vivo, Cirsium arvense (L.) Scop.; conditions: Cirsium arvense, post-emergence, foliar-applied, after 20-22 days, read-out: Weed Control CIRAR Obs
Experimental: as §1, §2, §3, §4, §5, §6

[3] = system: IPOHE (Ipomoea hederacea, ivyleaf morningglory); assay: Postemergence foliar-applied weed control, direct seeded rice, greenhouse (Example I); format: in vivo, Ipomoea hederacea Jacq.
Text: (§7) Seeds or nutlets of the desired test plant species were planted in a soil matrix prepared by mixing a loam or sandy loam soil (e.g., 28.6 percent silt, 18.8 percent clay, and 52.6 percent sand, with a pH of about 5.8 and an organic matter content of about 1.8 percent) and calcareous grit in an 80 to 20 ratio. The soil matrix was contained in plastic pots with a volume of 1 quart and a surface area of 83.6 square centimeters (cm^2). When required to ensure good germination and healthy plants, a fungicide treatment and/or other chemical or physical treatment was applied. The plants were grown for 8-22 days in a greenhouse with an approximate 14 h photoperiod which was maintained at about 29° C. during the day and 26° C. during the night. Nutrients (Peters Excel® 15-5-15 5-Ca 2-Mg and iron chelate) were applied in the irrigation solution as needed and water was added on a regular basis. Supplemental lighting was provided with overhead metal halide 1000-Watt lamps as necessary. The plants were employed for testing when they reached the first through fourth true leaf stage.
(§8) Treatments consisted of the acid or esters of 4-amino-3-chloro-5-fluoro-6-(4-chloro-2-fluoro-3-methoxy-phenyl)pyridine-2-carboxylic acid (Compound A), each formulated as an SC, and various herbicidal components alone and in combination. Forms of compound A were applied on an acid equivalent basis.
(§9) Other herbicidal components were applied on an active ingredient basis and included acetolactate synthase (ALS)-inhibiting herbicides (sulfonylurea chemical class) azimsulfuron formulated as Gulliver®, bensulfuron-methyl formulated as Londax® 60DF, cyclosulfamuron (technical material), ethoxysulfuron formulated as Sunrice® 15 WDG, flazasulfuron formulated as Katana®, flucetosulfuron formulated as Sukedachi® 1KG G, foramsulfuron formulated as Option®, imazosulfuron formulated as Brazzos® WG, iodosulfuron-methyl-sodium formulated as Hussar®, metsulfuron-methyl formulated as Lorate®, nicosulfuron formulated as Accent®, orthosulfamuron formulated as Strada® WG, primisulfuron-methyl (technical material), propyrisulfuron formulated as Zeta One®, rimsulfuron formulated as Matrix® WG, sulfometuron-methyl formulated as Oust®, and trifloxysulfuron-sodium formulated as Monument® 75WG.
(§10) Treatment requirements were calculated based upon the rates being tested, the concentration of active ingredient or acid equivalent in the formulation, and a 12 mL application volume at a rate of 187 L/ha.
(§11) For treatments comprised of formulated compounds, measured amounts of compounds were placed individually in 25 mL glass vials and diluted in a volume of 1.25% (v/v) Agri-Dex® crop oil concentrated to obtain 12× stock solutions. […] Application solutions were prepared by adding an appropriate amount of each stock solution (e.g., 1 mL) and diluted to the appropriate final concentrations with the addition of 10 mL of an aqueous mixture of 1.25% (v/v) crop oil concentrate so that the final spray solutions contained 1.25+/−0.05% (v/v) Agrcrop oil concentrate.
(§12) For treatments comprised of formulated and technical compounds, weighed amounts of the technical materials were placed individually in 25 mL glass vials and dissolved in a volume of 97:3 v/v acetone/DMSO to obtain 12× stock solutions, and measured amounts of the formulated compounds were placed individually in 25 mL glass vials and diluted in a volume of 1.25% (v/v) crop oil concentrate to obtain 12× stock solutions. […] Application solutions were prepared by adding an appropriate amount of each stock solution (e.g., 1 mL) and diluted to the appropriate final concentrations with the addition of an appropriate amount of an aqueous mixture of 1.5% (v/v) crop oil concentrate so that the final spray solutions contained 1.25% (v/v) crop oil concentrate. […]

[4] = system: MATCH (Chamomilla chamomilla, scented mayweed); assay: Post-emergence foliar-applied weed control in cereal crops, greenhouse (Example III); format: in vivo, Chamomilla chamomilla (L.) Rydb.
Experimental: as §1, §2, §3, §4, §5, §6

[5] = system: DIGSA (Digitaria sanguinalis, large crabgrass); assay: Postemergence foliar-applied weed control, direct seeded rice, greenhouse (Example I); format: in vivo, Digitaria sanguinalis (L.) Scop.; conditions: 20 DAA; 8.75 gai/ha
Procedure, shortened: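 Greenhouse-grown plants (14 h photoperiod, 29/26 °C day/night) at first to fourth true leaf stage sprayed overhead at 187 L/ha with Compound A (acid equivalent basis) alone or mixed with sulfonylurea ALS inhibitors (active ingredient basis). Final spray contained 1.25% v/v crop oil concentrate; controls received solvent blank.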

[6] = system: CYPES (Cyperus esculentus, yellow nutsedge); assay: as above; format: in vivo, Cyperus esculentus L.; conditions: 20 DAA
Text: as §7, §8, §9, §10, §11, §12

[7] = system: LEFCH (Leptochloa chinensis, Chinese sprangletop); assay: In-water applied weed control, transplanted paddy rice, greenhouse (Example II); format: in vivo, Leptochloa chinensis (L.) Nees
Experimental: (§13) Weed seeds or nutlets of the desired test plant species were planted in puddled soil (mud) prepared by mixing a shredded, non-sterilized mineral soil (50.5 percent silt, 25.5 percent clay, and 24 percent sand, with a pH of about 7.6 and an organic matter content of about 2.9 percent) and water at a 1:1 volumetric ratio. The prepared mud was dispensed in 365 mL aliquots into 16-ounce (oz.) non-perforated plastic pots with a surface area of 86.59 square centimeters (cm^2) leaving a headspace of 3 centimeters (cm) in each pot. Rice seeds were planted in Sun Gro MetroMix® 306 planting mixture, which typically has a pH of 6.0 to 6.8 and an organic matter content of about 30 percent, in plastic plug trays. Seedlings at the second or third leaf stage of growth were transplanted into 860 mL of mud contained in 32-oz. non-perforated plastic pots with a surface area of 86.59 cm^2 4 days prior to herbicide application. The paddy was created by filling the headspace of the pots with 2.5 to 3 cm of water. When required to ensure good germination and healthy plants, a fungicide treatment and/or other chemical or physical treatment was applied. The plants were grown for 4-22 days in a greenhouse with an approximate 14 h photoperiod which was maintained at about 29′C during the day and 26° C. during the night. Nutrients were added as Osmocote® (19:6:12, N:P:K+minor nutrients) at 2 g per 16-oz. pot and 4 g per 32-oz. pot. Water was added on a regular basis to maintain the paddy flood, and supplemental lighting was provided with overhead metal halide 1000-Watt lamps as necessary. The plants were employed for testing when they reached the first through fourth true leaf stage.
(§14) Treatments consisted of the acid or esters of 4-amino-3-chloro-5-fluoro-6-(4-chloro-2-fluoro-3-methoxy-phenyl)pyridine-2-carboxylic acid (compound A) each formulated as an SC and various herbicidal components alone and in combination. Forms of compound A were applied on an acid equivalent basis.
(§15) Other herbicidal components were applied on an active ingredient basis and included acetolactate synthase (ALS)-inhibiting herbicides (sulfonylurea chemical class), azimsulfuron formulated as Gulliver®, bensulfuron-methyl formulated as Londax® 60DF, cyclosulfamuron (technical grade materail), ethoxysulfuron formulated as Sunrice® 15 WDG, flucetosulfuron formulated as Sukedachi® 1KG G, imazosulfuron formulated as Brazzos®, metsulfuron-methyl formulated as Lorate®, nicosulfuron formulated as Accent®, orthosulfamuron formulated as Strada® WG, propyrisulfuron formulated as Zeta One®, and rimsulfuron formulated as Matrix® WG.
(§16) Treatment requirements for each compound or herbicidal component were calculated based upon the rates being tested, the concentration of active ingredient or acid equivalent in the formulation, an application volume of 2 mL per component per pot, and an application area of 86.59 cm^2 per pot.
(§17) For formulated compounds, a measured amount was placed in an individual 100 or 200 mL glass vial and was dissolved in a volume of 1.25% (v/v) Agri-Dex® crop oil concentrate to obtain application solutions.
(§18) For technical grade compounds, a weighed amount was placed in an individual 100 to 200 mL glass vial and was dissolved in a volume of acetone to obtain concentrated stock solutions. […] The concentrated stock solutions obtained were diluted with an equivalent volume of an aqueous mixture containing 2.5% (v/v) crop oil concentrate so that the final application solutions contained 1.25% (v/v) crop oil concentrate.
(§19) Applications were made by injecting with a pipetter appropriate amounts of the application solutions, individually and sequentially, into the aqueous layer of the paddy. Control plants were treated in the same manner with the solvent blank. Applications were made so that all treated plant material received the same concentrations of acetone and crop oil concentrate. […]

[8] = system: CYPRO (Cyperus rotundus, purple nutsedge); assay: as above; format: in vivo, Cyperus rotundus L.
Experimental: as §13, §14, §15, §16, §17, §18, §19

[9] = system: ECHCG (Echinochloa crus-galli, barnyardgrass); assay: as above; format: in vivo, Echinochloa crus-galli (L.) Beauv.
Experimental: as §13, §14, §15, §16, §17
For technical grade compounds, a weighed amount was placed in an individual 100 to 200 mL glass vial and was dissolved in a volume of acetone to obtain concentrated stock solutions. […]

[10] = system: LAMPU (Lamium purpureum, purple deadnettle); assay: Post-emergence foliar-applied weed control in cereal crops, greenhouse (Example III); format: in vivo, Lamium purpureum (L.); conditions: Table 57, after 20-22 days, 8.75 gai/ha Sulfosulfuron alone
Experimental: as §1, §2, §3, §4, §5, §6

[11] = system: VERPE (Veronica persica, bird's-eye speedwell); assay: as above; format: in vivo, Veronica persica Poir.; conditions: Table 57, after 20-22 days, 8.75 gai/ha Sulfosulfuron alone
Experimental: as §1, §2, §3, §4, §5, §6

[12] = Table 54, after 20-22 days, 2.5 gai/ha alone

COc1nc(C)nc(NC(=O)NS(=O)(=O)c2ccccc2Cl)n1 [Chlorsulfuron]
Weed Control VIOTR Obs ([1]; Table 52, after 20-22 days, 2.2 gai/ha alone): 70%
pest or weed control at 2.2 g/ha ([2]; Table 52, 2.2 gai/ha alone): 78%

COC(=O)c1ccc(I)cc1S(=O)(=O)[N-]C(=O)Nc1nc(C)nc(OC)n1.[Na+] [Iodosulfuron-methyl sodium, methyl 4-iodo-2-[[[[(4-methoxy-6-methyl-1,3,5-triazin-2-yl)amino]carbonyl]amino]sulfonyl]benzoate, sodium salt, reference compound]
Visual Weed Control (%) Obs ([3]; 21 DAA, 2.5 gai/ha): 90%
Visual Weed Control (%) Obs ([3]; 21 DAA, 5 gai/ha): 95%
Weed Control VIOTR Obs [1, 12]: 82%
pest or weed control at 2.5 g/ha ([2]; Table 54, 2.5 gai/ha alone): 60%
Weed Control MATCH Obs [4, 12]: 94%

CCS(=O)(=O)c1cccnc1S(=O)(=O)NC(=O)Nc1nc(OC)cc(OC)n1 [Rimsulfuron, N-[[(4,6-dimethoxy-2-pyrimidinyl)amino]carbonyl]-3-(ethylsulfonyl)-2-pyridinesulfonamide, reference compound]
Visual Weed Control (%) Obs ([3]; 20 DAA, 4.38 gai/ha): 60%
Visual Weed Control (%) Obs ([3]; 20 DAA, 8.75 gai/ha): 75%
Visual Weed Control (%) Obs [5]: 70%
Visual Weed Control (%) Obs ([6]; 2.19 gai/ha): 0%
Visual Weed Control (%) Obs ([6]; 4.38 gai/ha): 0%
Visual Weed Control (%) Obs ([6]; 8.75 gai/ha): 60%
Visual Weed Control (%) - 20 DAA LEFCH Obs ([7]; Table 49, 4.38 gai/ha alone): 0%
Visual Weed Control (%) - 20 DAA LEFCH Obs ([7]; Table 50, 4.38 gai/ha alone): 0%
Visual Weed Control (%) - 20 DAA LEFCH Obs ([7]; Table 50, 8.75 gai/ha alone): 30%
Visual Weed Control (%) - 20 DAA CYPRO Obs ([8]; Table 49, 4.38 gai/ha alone): 0%
Visual Weed Control (%) - 20 DAA CYPRO Obs ([8]; Table 50, 4.38 gai/ha alone): 0%
Visual Weed Control (%) - 20 DAA ECHCG Obs ([9]; Table 50, 4.38 gai/ha alone): 0%
Visual Weed Control (%) - 20 DAA ECHCG Obs ([9]; Table 50, 8.75 gai/ha alone): 0%

CCS(=O)(=O)c1nc2ccccn2c1S(=O)(=O)NC(=O)Nc1nc(OC)cc(OC)n1 [Sulfosulfuron]
Weed Control LAMPU Obs [10]: 5%
Weed Control VERPE Obs [11]: 35%
pest or weed control at 8.75 g/ha ([2]; Table 57, 8.75 gai/ha Sulfosulfuron alone): 70%
Weed Control MATCH Obs ([4]; Table 57, after 20-22 days, 8.75 gai/ha Sulfosulfuron alone): 95%
